Test results from publication PMC4232273 (Angewandte Chemie (International Ed. in English), 2014).

Target: New Delhi metallo-β-lactamase subclass 1 (NDM-1) (Klebsiella pneumoniae, UniProt C7C422)
Experiment: 1H NMR monitoring of hydrolysis in E. coli cells expressing NDM-1
Assay type: cell-based

New Delhi metallo-β-lactamase subclass 1 (NDM-1), sequence (C7C422 29-270, looked up): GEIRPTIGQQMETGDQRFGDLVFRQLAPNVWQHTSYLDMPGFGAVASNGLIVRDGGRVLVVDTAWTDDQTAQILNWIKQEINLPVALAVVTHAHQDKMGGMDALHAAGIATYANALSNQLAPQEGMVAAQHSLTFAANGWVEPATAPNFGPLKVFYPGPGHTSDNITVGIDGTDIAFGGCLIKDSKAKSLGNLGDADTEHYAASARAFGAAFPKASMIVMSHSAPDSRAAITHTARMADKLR

## C[C@@H](O)[C@H]1C(=O)N2C(C(=O)O)=C(SCCN=CN)C[C@H]12 [imipenem]
  1H NMR monitoring of hydrolysis in E. coli cells expressing NDM-1: These were readily hydrolyzed by the NDM-1 E. coli cells within an hour or so under our experimental conditions
